Values after ≈ are worked out from the molar mass of the structure shown. Where two headings read alike, the source gives them in different places.
What was measured:
confused flour beetle [1] = experiment: Residual contact activity, confused flour beetle; type: in vivo; settings: Tribolium confusum, 48 h, read-out: % Kill, FB (residual contact)
Description: (§1) Initial Contact Activity: One-half gram of test compound was dissolved in 40 ml of acetone and this solution was dispersed in 360 ml of water containing one drop of isooctyl phenyl polyethoxyethanol. An aliquot of this solution was diluted with water to provide a solution containing 1250 ppm of active ingredient. Test organisms and techniques were as follows: The activities against the Mexican bean beetle (Epilachna varivestis Muls.) and the southern army worm (Prodenia eridania [Cram.]) were evaluated by dipping the leaves of pinto bean plants into the test solution and infesting the leaves with the appropriate immature form insects when the foliage had dried; the activity against the pea aphid (Macrosiphum pisi [Harris]) was evaluated on broad bean plants whose leaves were dipped before infestation with adult aphids; the activity against the two-spotted spider mite (Tetranychus urticae [L.]) was evaluated on pinto bean plants whose leaves were dipped after infestation with adult mites; the activities against the milkweed bug (Oncopeltus fascinatus [Dallas]) and the plum curculio (Conotrachelus nenuphar [Herbst]) were evaluated by spraying the test solutions into glass dishes containing the adult insects; the activities against the granary weevil (Sitophilus granarius [L.]) and the confused flour beetle (Tribolium confusum [duVal]) were evaluated by introducing the insects into glass dishes which had been previously sprayed with test solution and allowed to dry. All organisms in the test were maintained in a holding room at 80° F. and 50% relative humidity for an exposure period of forty-eight hours. At this time the number of dead and living insects were counted and the percent kill was calculated.
The residual contact activity of the compounds was determined on the same organisms using the technique described above, except that in each case the treated surface was allowed to dry and was exposed to normal light and air for seven days before introduction of the mites or insects. The compounds show a high order of residual activity toward the test insects.

two-spotted spider mite [2] = experiment: Residual contact activity, two-spotted spider mite; settings: Tetranychus urticae, 48 h, read-out: % Kill, SM (residual contact)
pea aphid [3] = experiment: whole plant or invertebrate; settings: Acyrthosiphon pisum, 48 h, read-out: % Kill, PA (systemic)
plum curculio [4] = experiment: Residual contact activity, plum curculio; settings: Conotrachelus nenuphar, 48 h, read-out: % Kill, PC (residual contact)
milkweed bug [5] = experiment: Initial contact activity, milkweed bug; settings: Oncopeltus fasciatus, 48 h, read-out: % Kill, MWB (initial contact)
Mexican bean beetle [6] = experiment: Residual contact activity, Mexican bean beetle; settings: Epilachna varivestis, 48 h, read-out: % Kill, BB (residual contact)
confused flour beetle [7] = experiment: Initial contact activity, confused flour beetle; type: in vivo; settings: Tribolium confusum, read-out: % Kill, FB (initial contact)
Description: as §1

in vivo = settings: mouse, po
Description: Acute oral toxicity of the compounds of the present invention to mice was determined after the manner of Hollingworth, Fukuto, and Metcalf in J. Agr. […] A dose of 0.25 ml of each solution was administered to each of four female white Swiss mice using the "bolus" - tipped syringe. […] Final mortality determinations were made forty-eight hours after treatment.

two-spotted spider mite [8] = experiment: Initial contact activity, two-spotted spider mite; settings: Tetranychus urticae, 48 h, read-out: % Kill, SM (initial contact)
southern army worm [9] = experiment: Residual contact activity, southern army worm; settings: 1250 ppm; 7 days; 2880 min
Mexican bean beetle [10] = experiment: Initial contact activity, Mexican bean beetle; settings: Epilachna varivestis, 48 h, read-out: % Kill, BB (initial contact)
pea aphid [11] = experiment: Initial contact activity, pea aphid; settings: Acyrthosiphon pisum, 48 h, read-out: % Kill, PA (initial contact)
Culex fatigans = experiment: whole plant or invertebrate; settings: Culex quinquefasciatus, 24 h, read-out: Mosquitoes LC50
Description: The appropriate amount of stock solution was added with stirring to 100 ml of tap water and 20-25 fourth instar larvae of Culex fatigans were placed in the solution. After twenty-four hours, the counts were taken. Larvae not able to rise to the surface on touch were counted as dead. Each concentration was run in duplicate and each material was run on two or three different days. The average percent mortality was plotted against the logarithm of the concentration (in ppm) and the LC50 value determined by inspection.

granary weevil [12] = experiment: Initial contact activity, granary weevil; settings: Sitophilus granarius, 48 h, read-out: % Kill, GW (initial contact)
houseflies = experiment: whole plant or invertebrate; settings: Musca domestica, topical, 24 h, read-out: Houseflies LD50
Description: Toxicity of the compounds of the present invention to houseflies was tested using the technique described by March and Metcalf in Bull. Calif. State Dept. Agr. […] Adult female houseflies were treated with one drop of acetone solution, applied to the prothorax, using a syringe calibrated to deliver 1.00 ± 0.05 mm^3 drops. Twenty flies were treated at each dosage, each test compound was applied at 8 to 10 dosage levels. Each test was replicated three times. […] A one-inch square of cotton saturated with 40% sugar solution was provided for food in each carton. The cartons of flies were held in a constant temperature chamber at 60° F and 60% relative humidity for 24 hours before mortality counts were made. Flies totally unable to make crawling or walking movements were counted as dead. LD50 values were calculated in the conventional manner.

two-spotted spider mite [13] = experiment: whole plant or invertebrate; settings: Tetranychus urticae, 48 h, read-out: % Kill, SM (systemic)
pea aphid [14] = experiment: Residual contact activity, pea aphid; settings: Acyrthosiphon pisum, 48 h, read-out: % Kill, PA (residual contact)
southern army worm [15] = experiment: Initial contact activity, southern army worm; settings: 1250 ppm, 48 h exposure
southern army worm [16] = settings: 2880 min
milkweed bug [17] = experiment: Residual contact activity, milkweed bug; settings: Oncopeltus fasciatus, 48 h, read-out: % Kill, MWB (residual contact)
plum curculio [18] = experiment: Initial contact activity, plum curculio; settings: Conotrachelus nenuphar, 48 h, read-out: % Kill, PC (initial contact)
Mexican bean beetle [19] = experiment: whole plant or invertebrate; settings: Epilachna varivestis, 48 h, read-out: % Kill, BB (systemic)
granary weevil [20] = experiment: Residual contact activity, granary weevil; settings: Sitophilus granarius, 48 h, read-out: % Kill, GW (residual contact)
[21] = 39 ppm soil watering, separate test vs carbofuran

Row | Compound | mortality at 1250 ppm (two-spotted spider mite [2]) | mortality at 39 ppm (pea aphid [3]) | mortality at 1250 ppm (plum curculio [4]) | mortality at 1250 ppm (milkweed bug [5]) | mortality at 1250 ppm (Mexican bean beetle [6]) | LD50 at 48 h (in vivo) | mortality at 1250 ppm (two-spotted spider mite [8]) | % Kill, AW (residual contact) (southern army worm [9]) | mortality at 1250 ppm (Mexican bean beetle [10]) | LC50 (Culex fatigans) | mortality at 1250 ppm (granary weevil [12]) | LD50 (houseflies) | mortality at 39 ppm (two-spotted spider mite [13]) | mortality at 156 ppm (two-spotted spider mite [13]) | % Kill, AW (initial contact) (southern army worm [15]) | % Kill, AW (systemic) (southern army worm [16]; [21]) | % Kill, AW (systemic) (southern army worm [16]; 156 ppm soil watering) | mortality at 1250 ppm (milkweed bug [17]) | mortality at 1250 ppm (plum curculio [18]) | mortality at 39 ppm (Mexican bean beetle [19]) | also measured
1 | Cc1cc(C(C)(C)C)ccc1SN(C)C(=O)Oc1cccc2c1OC(C)(C)C2 [Example VI, 2,3-Dihydro-2,2-dimethyl-7-benzofuranyl [4-(tert-butyl)-2-methylphenylthio] (methyl)carbamate] | 7% | 35% | 53% | 100% | 100% | 75 to 125 mg/kg | 77% | 100% | 100% | 2 ng/mL (≈ 0.00501 µM) | 100% | 7.5 mg/kg | 11% | 6% | 95% | 0% | 0% | 95% | 100% | 85% | mortality at 1250 ppm (confused flour beetle [1]; 1250 ppm, 7 days): 100%; mortality at 156 ppm (pea aphid [3]): 95%; mortality at 1250 ppm (confused flour beetle [7]; 1250 ppm, 48 h exposure): 90%; mortality at 1250 ppm (pea aphid [11]): 0%; mortality at 1250 ppm (pea aphid [14]): 0%; mortality at 156 ppm (Mexican bean beetle [19]): 100%; mortality at 1250 ppm (granary weevil [20]): 100%
2 | Cc1cccc(SN(C)C(=O)Oc2cccc3c2OC(C)(C)C3)c1 [Example X, 2,3-Dihydro-2,2-dimethyl-7-benzofuranyl (3-methylphenylthio)(methyl)carbamate] | 30% | 100% | 95% | 100% | 100% | 25 to 50 mg/kg | 100% | 100% | 100% | 4 ng/mL (≈ 0.0116 µM) | 100% | 6.5 mg/kg | 26% | 28% | 100% | 100% | 100% | 100% | 100% | 100% | mortality at 1250 ppm (confused flour beetle [1]; 1250 ppm, 7 days): 100%; mortality at 156 ppm (pea aphid [3]): 100%; mortality at 1250 ppm (confused flour beetle [7]; 1250 ppm, 48 h exposure): 100%; mortality at 1250 ppm (pea aphid [11]): 100%; mortality at 1250 ppm (pea aphid [14]): 100%; mortality at 156 ppm (Mexican bean beetle [19]): 100%; mortality at 1250 ppm (granary weevil [20]): 100%
3 | Cc1ccc(SN(C)C(=O)Oc2cccc3c2OC(C)(C)C3)cc1 [IV, 2,3-Dihydro-2,2-dimethyl-7-benzofuranyl(methyl)(4-methylphenylthio)carbamate] | 94% | 100% | 100% | 100% | 100% | 100 to 125 mg/kg | 100% | 100% | 100% | 4.5 ng/mL (≈ 0.0131 µM) | 100% | 9 mg/kg | 24% | 64% | 100% | 100% | 100% | 100% | 100% | 100% | mortality at 1250 ppm (confused flour beetle [1]): 92%; mortality at 1250 ppm (confused flour beetle [7]; 48 h): 100%; mortality at 156 ppm (Mexican bean beetle [19]): 100%; mortality at 1250 ppm (granary weevil [20]): 100%
